Test system: genotype A, "Long" strain RSV
Test: RSV-A assay: CPE protection in HEp-2 cells, ATPlite readout
Assay type: cell-based, human respiratory syncytial virus
Details: human respiratory syncytial virus, HEp-2, read-out: Human RSV-A (“Long” strain) EC50
Summary of the method: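 HEp-2 cells (8,000/well) with 2-fold compound dilutions in duplicate, infected with Long-strain RSV at MOI 0.1 and incubated 5 days. Cell ATP measured by ATPlite luminescence to give EC50; uninfected parallel plate gives CC50.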

Row | SMILES | EC50
1 | Cn1cc(-c2cc(C#N)ccc2-c2nnc(N[C@H]3N=C(c4ccccc4)c4ccccc4NC3=O)o2)ccc1=O [Example 315] | > 800 nM
2 | O=C1Nc2ccccc2C(c2ccccc2)=N[C@@H]1Nc1nnc(-c2ncc3ccccc3c2N2CCOCC2)o1 [Example 316] | > 800 nM
3 | O=C1Nc2ccccc2C(c2ccccc2)=N[C@@H]1Nc1nnc(-c2ccc(N3CCCC3)cc2N2CCOCC2)o1 [Example 317] | < 400 nM
4 | O=C1Nc2ccccc2C(c2ccccc2)=N[C@@H]1Nc1nnc(-c2nc(C3CC3)ccc2N2CCOCC2)o1 [Example 318] | < 400 nM
5 | N#Cc1ccc(-c2nnc(N[C@H]3N=C(c4ccccc4)c4ccccc4NC3=O)o2)c(-c2ccoc2)c1 [Example 319] | > 800 nM
6 | Cc1noc(C)c1-c1cc(C#N)ccc1-c1nnc(N[C@H]2N=C(c3ccccc3)c3ccccc3NC2=O)o1 [Example 320] | > 800 nM
7 | O=C1Nc2ccccc2C(c2ccccc2)=N[C@@H]1Nc1nnc(-c2ncc(C3CC3)cc2N2CC3CCC(C2)O3)o1 [Example 321] | < 400 nM
8 | N#Cc1cc(N2CCOCC2)c(-c2nnc(N[C@H]3N=C(c4ccccc4)c4ccccc4NC3=O)o2)s1 [Example 323] | < 400 nM
9 | N#Cc1ccc(N2CCOCC2)c(-c2nnc(N[C@H]3N=C(c4ccccc4)c4ccccc4NC3=O)o2)n1 [Example 324] | < 400 nM
10 | N#Cc1cnc(-c2nnc(N[C@H]3N=C(c4ccccc4)c4ccccc4NC3=O)o2)c(N2CCOCC2)c1 [Example 325] | < 400 nM
11 | C[C@@H]1CN(c2cc(C#N)cnc2-c2nnc(N[C@H]3N=C(c4ccccc4)c4ccccc4NC3=O)o2)CCO1 [Example 326] | 400 to 800 nM
12 | CN1CCN(c2cc(C(F)(F)F)cnc2-c2nnc(N[C@H]3N=C(c4ccccc4)c4ccccc4NC3=O)o2)CC1 [Example 327] | 400 to 800 nM
13 | O=C1Nc2ccccc2C(c2ccccc2)=N[C@@H]1Nc1nnc(-c2ncc(C(F)(F)F)cc2N2CCC(O)CC2)o1 [Example 328] | > 800 nM
14 | C[C@H]1CN(c2cc(C#N)cnc2-c2nnc(N[C@H]3N=C(c4ccccc4)c4ccccc4NC3=O)o2)CCO1 [Example 329] | < 400 nM
15 | Cc1cc(-c2nnc(N[C@H]3N=C(c4ccccc4)c4ccccc4NC3=O)o2)c(N2CCOCC2)s1 [Example 330] | < 400 nM
16 | N#CCNc1cc(C(F)(F)F)cnc1-c1nnc(N[C@H]2N=C(c3ccccc3)c3ccccc3NC2=O)o1 [Example 331] | > 800 nM
17 | CS(=O)(=O)c1cnc(-c2nnc(N[C@H]3N=C(c4ccccc4)c4ccccc4NC3=O)o2)c(N2CCOCC2)c1 [Example 332] | > 800 nM
18 | N#Cc1cnc(-c2nnc(N[C@H]3N=C(c4ccccc4)c4ccccc4NC3=O)o2)c(N2C3CCC2COC3)c1 [Example 333] | 400 to 800 nM
19 | COCCNc1sc(C)nc1-c1nnc(N[C@H]2N=C(c3ccccc3)c3ccccc3NC2=O)o1 [Example 335] | < 400 nM
20 | Cc1nc(-c2nnc(N[C@H]3N=C(c4ccccc4)c4ccccc4NC3=O)o2)c(N2CCOCC2)o1 [Example 337] | < 400 nM
21 | COc1ccccc1-c1nc(-c2nnc(N[C@H]3N=C(c4ccccc4)c4ccccc4NC3=O)o2)c(N2CCOCC2)s1 [Example 342] | < 400 nM
22 | Cc1nc(-c2nnc(N[C@H]3N=C(c4ccccc4)c4ccccc4NC3=O)o2)cs1 [Example 343] | > 800 nM
23 | Cc1nc(-c2nnc(N[C@H]3N=C(c4ccccc4)c4ccccc4NC3=O)o2)c(Cl)s1 [Example 344] | > 800 nM
24 | Cc1nc(-c2nnc(N[C@H]3N=C(c4ccccc4)c4ccccc4NC3=O)o2)c(C2=CCOCC2)s1 [Example 345, (S)-3-((5-(5-(3,6-dihydro-2H-pyran-4-yl)-2-methylthiazol-4-yl)-1,3,4-oxadiazol-2-yl)amino)-5-phenyl-1,3-dihydro-2H-benzo[e][1,4]diazepin-2-one] | < 400 nM
25 | Cc1nc(-c2nnc(N[C@H]3N=C(c4ccccc4)c4ccccc4NC3=O)o2)c(C2CCOCC2)s1 [Example 346, (S)-3-((5-(2-methyl-5-(tetrahydro-2H-pyran-4-yl)thiazol-4-yl)-1,3,4-oxadiazol-2-yl)amino)-5-phenyl-1,3-dihydro-2H-benzo[e][1,4]diazepin-2-one] | < 400 nM

— US12268694B2, “Combination pharmaceutical agents as RSV inhibitors” (Enanta Pharmaceuticals, Inc., priority 2017, dated 2025)
